Measurements taken from the NIST ThermoML archive (doi:10.1021/acs.jced.7b00604).

Test: xn = mol fraction of the nth substance listed
Conditions: 100 kPa, Liquid; for speed of sound: Frequency=3 MHz, Sing-around technique in a fixed-path interferometer; for mass density: Vibrating tube method

COCCO [2-methoxyethan-1-ol] + CCCC[n+]1ccn(C)c1.O=S(=O)([N-]S(=O)(=O)C(F)(F)F)C(F)(F)F
Conditions	mass density [kg/m3]	speed of sound [m/s]
298.15 K, x2 = 0	960.31	1341.8
298.15 K, x2 = 0.0966	1098.07	1301.4
298.15 K, x2 = 0.1943	1188.97	1279.7
298.15 K, x2 = 0.2887	1250.58	1266
298.15 K, x2 = 0.3979	1302.72	1253.5
298.15 K, x2 = 0.4792	1332.79	1246.7
298.15 K, x2 = 0.5943	1365.91	1239.9
298.15 K, x2 = 0.6753	1384.52	1236.6
298.15 K, x2 = 0.8101	1409.81	1232.5
298.15 K, x2 = 0.8849	1421.49	1230.2
303.15 K, x2 = 0	955.71	1324.1
303.15 K, x2 = 0.0966	1093.42	1285.2
303.15 K, x2 = 0.1943	1184.24	1264.7
303.15 K, x2 = 0.2887	1245.82	1251.7
303.15 K, x2 = 0.3979	1298.03	1240.4
303.15 K, x2 = 0.4792	1328.12	1234.1
303.15 K, x2 = 0.5943	1361.32	1227.6
303.15 K, x2 = 0.6753	1379.92	1224.9
303.15 K, x2 = 0.8101	1405.23	1221.2
303.15 K, x2 = 0.8849	1416.91	1219
308.15 K, x2 = 0	951.08	1307.3
308.15 K, x2 = 0.0966	1088.78	1269.8
308.15 K, x2 = 0.1943	1179.32	1250.1
308.15 K, x2 = 0.2887	1240.86	1237.7
308.15 K, x2 = 0.3979	1292.99	1227.8
308.15 K, x2 = 0.4792	1323.11	1221.7
308.15 K, x2 = 0.5943	1356.31	1216.1
308.15 K, x2 = 0.6753	1374.96	1213.3
308.15 K, x2 = 0.8101	1400.24	1209.9
308.15 K, x2 = 0.8849	1411.97	1208.2
313.15 K, x2 = 0	946.41	1292
313.15 K, x2 = 0.0966	1084.06	1255.3
313.15 K, x2 = 0.1943	1174.55	1236.4
313.15 K, x2 = 0.2887	1236.14	1224.7
313.15 K, x2 = 0.3979	1288.26	1215.7
313.15 K, x2 = 0.4792	1318.36	1209.7
313.15 K, x2 = 0.5943	1351.69	1204.9
313.15 K, x2 = 0.6753	1370.39	1202
313.15 K, x2 = 0.8101	1395.76	1198.9
313.15 K, x2 = 0.8849	1407.44	1197.3
318.15 K, x2 = 0	941.72	1274.2
318.15 K, x2 = 0.0966	1079.38	1238.8
318.15 K, x2 = 0.1943	1169.76	1221.3
318.15 K, x2 = 0.2887	1231.28	1210.4
318.15 K, x2 = 0.3979	1283.31	1202.3
318.15 K, x2 = 0.4792	1313.34	1197.1
318.15 K, x2 = 0.5943	1346.72	1192.7
318.15 K, x2 = 0.6753	1365.42	1190.3
318.15 K, x2 = 0.8101	1390.82	1187.7
318.15 K, x2 = 0.8849	1402.59	1186.3
323.15 K, x2 = 0	936.99	1259.4
323.15 K, x2 = 0.0966	1074.61	1224.6
323.15 K, x2 = 0.1943	1165.02	1207.8
323.15 K, x2 = 0.2887	1226.67	1197.6
323.15 K, x2 = 0.3979	1278.8	1190.1
323.15 K, x2 = 0.4792	1308.85	1185
323.15 K, x2 = 0.5943	1342.24	1181.1
323.15 K, x2 = 0.6753	1361.02	1179.1
323.15 K, x2 = 0.8101	1386.53	1176.9
323.15 K, x2 = 0.8849	1398.24	1175.9
